Laboratory results taken from patent US12435059B2, “AMP-activated protein kinase inhibitors and methods of making and using the same” (The Regents of the University of Colorado, priority 2019, dated 2025).

Legend:
Test in all cases: biochemical
Type in all cases: binding
468 kinases [1] = target: 468 kinases (Homo sapiens, UniProt O14936); settings: CASK; read-out: % Inhibition @ 100 nM
468 kinases [2] = target: 468 kinases (Homo sapiens, UniProt O95819); settings: MAP4K4; read-out: % Inhibition @ 100 nM
468 kinases [3] = target: 468 kinases (Homo sapiens, UniProt O96013); settings: PAK4; read-out: % Inhibition @ 100 nM
468 kinases [4] = target: 468 kinases (Homo sapiens, UniProt P00533, DEL746-750); settings: EGFR(E746-A750del); read-out: % Inhibition @ 100 nM
468 kinases [5] = target: 468 kinases (Homo sapiens, UniProt P00533, G719C); settings: EGFR(G719C); read-out: % Inhibition @ 100 nM
468 kinases [6] = target: 468 kinases (Homo sapiens, UniProt P00533, G719S); settings: EGFR(G719S); read-out: % Inhibition @ 100 nM
468 kinases [7] = target: 468 kinases (Homo sapiens, UniProt P0C264); settings: SgK110; read-out: % Inhibition @ 100 nM
468 kinases [8] = target: 468 kinases (Homo sapiens, UniProt P12931); settings: SRC; read-out: % Inhibition @ 100 nM
468 kinases [9] = target: 468 kinases (Homo sapiens, UniProt P21709); settings: EPHA1; read-out: % Inhibition @ 100 nM
468 kinases [10] = target: 468 kinases (Homo sapiens, UniProt P36888, N841I); settings: FLT3(N841I); read-out: % Inhibition @ 100 nM
468 kinases [11] = target: 468 kinases (Homo sapiens, UniProt P42336, E542K); settings: PIK3CA(E542K); read-out: % Inhibition @ 100 nM
468 kinases [12] = target: 468 kinases (Homo sapiens, UniProt P45984); settings: JNK2; read-out: % Inhibition @ 100 nM
468 kinases [13] = target: 468 kinases (Homo sapiens, UniProt P49137); settings: MAPKAPK2; read-out: % Inhibition @ 100 nM
468 kinases [14] = target: 468 kinases (Homo sapiens, UniProt P49841); settings: GSK3B; read-out: % Inhibition @ 100 nM
468 kinases [15] = target: 468 kinases (Homo sapiens, UniProt P57078); settings: RIPK4; read-out: % Inhibition @ 100 nM
468 kinases [16] = target: 468 kinases (Homo sapiens, UniProt Q05655); settings: PRKCD; read-out: % Inhibition @ 100 nM
468 kinases [17] = target: 468 kinases (Homo sapiens, UniProt Q09013); settings: DMPK; read-out: % Inhibition @ 100 nM
468 kinases [18] = target: 468 kinases (Homo sapiens, UniProt Q12851); settings: MAP4K2; read-out: % Inhibition @ 100 nM
468 kinases [19] = target: 468 kinases (Homo sapiens, UniProt Q13153); settings: PAK1; read-out: % Inhibition @ 100 nM
468 kinases [20] = target: 468 kinases (Homo sapiens, UniProt Q14164); settings: IKK-epsilon; read-out: % Inhibition @ 100 nM
468 kinases [21] = target: 468 kinases (Homo sapiens, UniProt Q14680); settings: MELK; read-out: % Inhibition @ 100 nM
468 kinases [22] = target: 468 kinases (Homo sapiens, UniProt Q15208); settings: NDR1; read-out: % Inhibition @ 100 nM
468 kinases [23] = target: 468 kinases (Homo sapiens, UniProt Q16584); settings: MLK3; read-out: % Inhibition @ 100 nM
468 kinases [24] = target: 468 kinases (Homo sapiens, UniProt Q2M2I8); settings: AAK1; read-out: % Inhibition @ 100 nM
468 kinases [25] = target: 468 kinases (Homo sapiens, UniProt Q8NE63); settings: HIPK4; read-out: % Inhibition @ 100 nM
468 kinases [26] = target: 468 kinases (Homo sapiens, UniProt Q8NFD2); settings: ANKK1; read-out: % Inhibition @ 100 nM
468 kinases [27] = target: 468 kinases (Homo sapiens, UniProt Q8TBX8); settings: PIP5K2C; read-out: % Inhibition @ 100 nM
468 kinases [28] = target: 468 kinases (Homo sapiens, UniProt Q8TF76); settings: HASPIN; read-out: % Inhibition @ 100 nM
468 kinases [29] = target: 468 kinases (Homo sapiens, UniProt Q8WU08); settings: YANK1; read-out: % Inhibition @ 100 nM
468 kinases [30] = target: 468 kinases (Homo sapiens, UniProt Q96PN8); settings: TSSK3; read-out: % Inhibition @ 100 nM
468 kinases [31] = target: 468 kinases (Homo sapiens, UniProt Q9H4B4); settings: PLK3; read-out: % Inhibition @ 100 nM
468 kinases [32] = target: 468 kinases (Homo sapiens, UniProt Q9UQ88); settings: CDC2L2; read-out: % Inhibition @ 100 nM
468 kinases [33] = target: 468 kinases (Mycobacterium tuberculosis, UniProt P9WI81); settings: PKNB(M.tuberculosis); read-out: % Inhibition @ 100 nM

| Compound | inhibition at 0.1 µM (468 kinases [1]) | inhibition at 0.1 µM (468 kinases [2]) | inhibition at 0.1 µM (468 kinases [3]) | inhibition at 0.1 µM (468 kinases [4]) | inhibition at 0.1 µM (468 kinases [5]) | inhibition at 0.1 µM (468 kinases [6]) | inhibition at 0.1 µM (468 kinases [7]) | inhibition at 0.1 µM (468 kinases [8]) | inhibition at 0.1 µM (468 kinases [9]) | inhibition at 0.1 µM (468 kinases [10]) | inhibition at 0.1 µM (468 kinases [11]) | inhibition at 0.1 µM (468 kinases [12]) | inhibition at 0.1 µM (468 kinases [13]) | inhibition at 0.1 µM (468 kinases [14]) | inhibition at 0.1 µM (468 kinases [15]) | inhibition at 0.1 µM (468 kinases [16]) | inhibition at 0.1 µM (468 kinases [17]) | inhibition at 0.1 µM (468 kinases [18]) | inhibition at 0.1 µM (468 kinases [19]) | inhibition at 0.1 µM (468 kinases [20]) | also measured |
| --- | --- | --- | --- | --- | --- | --- | --- | --- | --- | --- | --- | --- | --- | --- | --- | --- | --- | --- | --- | --- | --- |
| CCN(CC)CCNC(=O)c1c(C)[nH]c(/C=C2\C(=O)Nc3ccc(CCO)cc32)c1C [Compound No. 10, (Z)—N-(2-(Diethylamino)ethyl)-5-((5-(2-hydroxyethyl)-2-oxoindolin-3-ylidene)methyl)-2,4-dimethyl-1H-pyrrole-3-carboxamide] | 19% | 47% | 0% | 32% | 32% | 9% | 58% | 15% | 0% | 95.5% | 10% | 0% | 0% | 0% | 12% | 16% | 0% | 88% | 0% | 68% | inhibition at 0.1 µM (468 kinases [21]): 4%; inhibition at 0.1 µM (468 kinases [22]): 34%; inhibition at 0.1 µM (468 kinases [23]): 20%; inhibition at 0.1 µM (468 kinases [24]): 88%; inhibition at 0.1 µM (468 kinases [25]): 28%; inhibition at 0.1 µM (468 kinases [26]): 53%; inhibition at 0.1 µM (468 kinases [27]): 0%; inhibition at 0.1 µM (468 kinases [28]): 59%; inhibition at 0.1 µM (468 kinases [29]): 0%; inhibition at 0.1 µM (468 kinases [30]): 4%; inhibition at 0.1 µM (468 kinases [31]): 4%; inhibition at 0.1 µM (468 kinases [32]): 1%; inhibition at 0.1 µM (468 kinases [33]): 0% |
| CCN(CC)CCNC(=O)c1c(C)[nH]c(/C=C2\C(=O)Nc3ccc(CCC(N)=O)cc32)c1C [Compound No. 16, (Z)-5-((5-(3-Amino-3-oxopropyl)-2-oxoindolin-3-ylidene)methyl)-N-(2-(diethylamino)ethyl)-2,4-dimethyl-1H-pyrrole-3-carboxamide] | 34% | 46% | 0% | 7% | 9% | 21% | 0% | 6% | 0% | 85% | 26% | 32% | 0% | 36% | 14% | 9% | 11% | 89% | 0% | 44% | inhibition at 0.1 µM (468 kinases [21]): 16%; inhibition at 0.1 µM (468 kinases [22]): 20%; inhibition at 0.1 µM (468 kinases [23]): 0%; inhibition at 0.1 µM (468 kinases [24]): 89%; inhibition at 0.1 µM (468 kinases [25]): 57%; inhibition at 0.1 µM (468 kinases [26]): 66%; inhibition at 0.1 µM (468 kinases [27]): 1%; inhibition at 0.1 µM (468 kinases [28]): 68%; inhibition at 0.1 µM (468 kinases [29]): 23%; inhibition at 0.1 µM (468 kinases [30]): 5%; inhibition at 0.1 µM (468 kinases [31]): 16%; inhibition at 0.1 µM (468 kinases [32]): 13%; inhibition at 0.1 µM (468 kinases [33]): 16% |
